Results on seven molecules are retold here after PMC3605731 (Current pharmaceutical design, 2012).

Like-named read-outs stand apart in the source and are kept apart here.

For data set [1], the system named is HIV-1 RT K103N. The note with it: relative to efavirenz; cited from earlier work.
The subject of data set [2] is HIV-1 RT Y188L. The note with it: relative to efavirenz; cited from earlier work.
Data set [3] has as its system HIV-1 RT L100I. The note with it: FEP/MC, relative to nevirapine; cited from earlier work.
The subject of data set [4] is HIV-1 RT Y181C. The note with it: FEP/MC, relative to nevirapine; cited from earlier work.
Data set [5] deals with HIV-1 RT L100I. The note with it: relative to nevirapine; cited from earlier work.
The test system of data set [6] is HIV-1 RT Y181C. The following applies: relative to nevirapine; cited from earlier work.
For data set [7], the system named is HIV-1 RT Y188L. The note with it: FEP/MC, relative to efavirenz; cited from earlier work.
Data set [8] relates to HIV-1 RT K103N. The note with it: FEP/MC, relative to efavirenz; cited from earlier work.
The test system of data set [9] is HIV-1 infected human MT-2 cells. The note with it: infected MT-2 human T-cell assay; cited from earlier work.
Data set [10] concerns HIV-1 in HeLa cells. The experiment in a line: Virus inhibition assay. In kind it is cell-based. The following applies: 48 hours.
For data set [11], the system named is GHOST cells.
Data set [12] relates to HIV-1 in GHOST cells. The experiment in a line: Virus inhibition assay. The following applies: 48 hours. It is filed as cell-based.
The test system of data set [13] is HIV-1 protease. The following applies: cited from earlier work.
Data set [14] has as its system HIV-1 protease. The note with it: cited from earlier work. The source holds these as a separate data set.

Take `Cc1cc(C#N)cc(C)c1Oc1nc(Nc2ccc(C#N)cc2)nc(N)c1Br` [etravirine]: the “ΔΔG (experimental), K103N” value in data set [1] was -2.00 ± 0.40 kcal/mol. The “ΔΔG (experimental), Y188L” value in data set [2] was -2.07 ± 0.23 kcal/mol. The “ΔΔG (predicted), L100I” value in data set [3] was -0.9 kcal/mol. The “ΔΔG (predicted), Y181C” value in data set [4] is -2.6 kcal/mol. The “ΔΔG (experimental), L100I” value in [5] is -2.36 ± 0.42 kcal/mol. Moreover, the “ΔΔG (experimental), Y181C” value in data set [6] is -1.36 ± 0.28 kcal/mol. The “ΔΔG (computed), Y188L” value in data set [7] is -2.4 kcal/mol. Moreover, in data set [8], the “ΔΔG (computed), K103N” value is -2.4 kcal/mol.
As for `Cc1ccnc2c1NC(=O)c1cccnc1N2C1CC1` [nevirapine], the concentration giving a half-maximal response (EC50) in data set [9] was 110 nM.
In the case of “2,6-dichlorobenzamido-1H-indole [Compound 5]”, the “HIV-1 inhibition (reduction in viral infectivity)” value in data set [10] (0.2 μM) and in data set [12] (0.2 μM) was “no appreciable inhibition” each time. Also, the HIV-1 inhibition in data set [10] (10 μM) and in data set [12] (10 μM) was 30% each time. Also, the viability in data set [11] (10 μM) stood at 81%; in data set [11] (50 μM), 46%.
For “Ac-Ser-Leu-Asn-(Phe-Hea-Pro)-Ile-Val-OMe [JG-365]”, the “ΔΔGbind (calculated), heptapeptide → hexapeptide (deletion of valine)” value in data set [13] (FEP/MD, averaged for R and S) is on record as 3.3 ± 1.1 kcal/mol. Besides, the “ΔΔGbind (experimental), heptapeptide → hexapeptide” value in [14] (from Ki values for an equilibrium mixture of R and S configurations) is on record as 3.8 ± 1.3 kcal/mol.
Turning to “Ac-Thr-Ile-Nle-ψ [CH2-NH]-Nle-Gln-Arg-NH2 [MVT-101]”, the “decrease of binding, single Nle to Met mutation” value in data set [13] is 0.7 kcal/mol.
Consider “Ala-Ala-Phe[CH(OH)CH2]Gly-Val-Val-OMe [HEI]”, for which the “ΔΔGbind (computed), central hydroxyl S to R” value in data set [13] (FEP/MD) is on record as 3.37 ± 0.64 kcal/mol. Moreover, in data set [13], the “predicted enhancement of binding, Gly to Nle mutation” value was 1.7 kcal/mol. The “ΔΔGbind (experimental), central hydroxyl S to R” value in data set [14] is reported as 2.6 kcal/mol.
With `Nc1noc(C2CN3CCC2C3)n1` (stereo not shown) [oxadiazole], in [9], the 50% effective concentration (EC50) result is “inactive”.
